Measurements reported in PMC12227055 (Science Advances, 2025).

Assays:
[1] = molecular target: CryoRhodopsin 2 (CryoR2) from Subtercola sp. AK-R2A1-2 (Subtercola sp. AK-R2A1-2); experiment: crystal structure
[2] = molecular target: CryoRhodopsin 2 (CryoR2) from Subtercola sp. AK-R2A1-2 (Subtercola sp. AK-R2A1-2); experiment: cryo-EM structure
[3] = molecular target: CryoRhodopsin 1 (CryoR1) from Cryobacterium levicorallinum, wild type (Cryobacterium levicorallinum); experiment: cryo-EM structure
[4] = molecular target: CryoRhodopsin 1 (CryoR1) from Cryobacterium levicorallinum, wild type (Cryobacterium levicorallinum); experiment: cryo-EM structure; remark: listed apart in the source
[5] = molecular target: CryoRhodopsin 1 (CryoR1) from Cryobacterium levicorallinum, wild type (Cryobacterium levicorallinum); experiment: SEC
CryoR4 = molecular target: T1, CryoR4 (Subtercola vilae, UniProt A0A4T2CD69); experiment: UV-Vis absorption and flash photolysis of purified holoprotein; assay type: binding; conditions: covalent Schiff base; detergent; pH 8.0
T1 construct: gene D4765_01930
T1 sequence (A0A4T2CD69 1-317): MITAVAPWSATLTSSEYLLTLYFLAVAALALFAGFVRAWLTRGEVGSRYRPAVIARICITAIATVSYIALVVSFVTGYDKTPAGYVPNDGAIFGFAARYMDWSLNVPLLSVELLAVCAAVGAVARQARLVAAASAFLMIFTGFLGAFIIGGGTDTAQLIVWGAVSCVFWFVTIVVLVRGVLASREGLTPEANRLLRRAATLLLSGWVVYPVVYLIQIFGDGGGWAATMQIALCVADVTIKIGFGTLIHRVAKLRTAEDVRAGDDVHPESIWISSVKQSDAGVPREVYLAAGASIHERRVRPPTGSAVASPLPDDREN

CryoR3 = molecular target: T2, CryoR3 (Cryobacterium frigoriphilum, UniProt A0A4R8ZY77); experiment: as above; assay type: binding; conditions: covalent Schiff base; detergent; pH 8.0
T2 construct: gene E3T55_12175
T2 sequence (A0A4R8ZY77 42-365): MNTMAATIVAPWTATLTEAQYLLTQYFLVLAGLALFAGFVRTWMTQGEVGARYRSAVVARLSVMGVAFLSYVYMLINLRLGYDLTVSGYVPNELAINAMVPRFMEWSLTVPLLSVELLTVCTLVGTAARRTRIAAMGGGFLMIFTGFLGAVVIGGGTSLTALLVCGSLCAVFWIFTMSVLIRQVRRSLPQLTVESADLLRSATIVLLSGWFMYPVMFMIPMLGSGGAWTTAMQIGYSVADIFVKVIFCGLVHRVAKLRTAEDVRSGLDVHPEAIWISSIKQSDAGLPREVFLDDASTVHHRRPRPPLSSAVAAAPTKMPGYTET

CryoR1_1–263 = molecular target: T3, CryoR1_1–263 (Cryobacterium levicorallinum, UniProt A0A1I3DJQ0); experiment: as above; assay type: binding; conditions: covalent Schiff base; detergent; pH 8.0
T3 construct: gene E3O11_09160
T3 sequence (A0A1I3DJQ0 3-265): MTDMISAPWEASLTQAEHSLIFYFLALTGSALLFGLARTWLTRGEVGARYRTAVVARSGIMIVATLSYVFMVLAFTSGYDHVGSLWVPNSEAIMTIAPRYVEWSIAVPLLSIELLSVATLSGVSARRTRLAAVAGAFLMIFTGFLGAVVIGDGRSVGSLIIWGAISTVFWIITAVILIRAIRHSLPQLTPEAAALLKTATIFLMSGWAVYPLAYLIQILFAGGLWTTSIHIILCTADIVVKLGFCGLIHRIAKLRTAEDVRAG

CryoR1 [6] = molecular target: T4, CryoR1 (Cryobacterium levicorallinum, UniProt A0A1I3DJQ0); experiment: cryo-EM structure (ground state); assay type: binding; conditions: covalent Schiff base (K241); pH 4.3, 8.0 and 10.5; detergent micelles or nanodisc
T4 construct: gene E3O11_09160
T4 sequence (A0A1I3DJQ0 3-327): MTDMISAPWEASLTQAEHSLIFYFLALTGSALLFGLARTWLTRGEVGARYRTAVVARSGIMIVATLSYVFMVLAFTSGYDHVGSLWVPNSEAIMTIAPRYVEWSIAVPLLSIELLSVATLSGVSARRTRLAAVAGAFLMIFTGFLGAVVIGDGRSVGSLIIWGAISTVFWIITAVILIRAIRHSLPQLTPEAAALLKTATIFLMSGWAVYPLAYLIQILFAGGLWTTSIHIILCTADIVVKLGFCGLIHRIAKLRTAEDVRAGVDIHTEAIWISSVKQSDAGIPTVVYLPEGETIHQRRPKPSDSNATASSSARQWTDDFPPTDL

CryoR1 [7] = molecular target: T5, CryoR1 (Cryobacterium levicorallinum, UniProt A0A1I3DJQ0, R59T); experiment: UV-Vis absorption and flash photolysis of purified holoprotein; assay type: binding; conditions: covalent Schiff base (K241); detergent; pH 8.0 and 10.5
T5 construct: gene E3O11_09160
T5 sequence (A0A1I3DJQ0 entry or part of it R59T): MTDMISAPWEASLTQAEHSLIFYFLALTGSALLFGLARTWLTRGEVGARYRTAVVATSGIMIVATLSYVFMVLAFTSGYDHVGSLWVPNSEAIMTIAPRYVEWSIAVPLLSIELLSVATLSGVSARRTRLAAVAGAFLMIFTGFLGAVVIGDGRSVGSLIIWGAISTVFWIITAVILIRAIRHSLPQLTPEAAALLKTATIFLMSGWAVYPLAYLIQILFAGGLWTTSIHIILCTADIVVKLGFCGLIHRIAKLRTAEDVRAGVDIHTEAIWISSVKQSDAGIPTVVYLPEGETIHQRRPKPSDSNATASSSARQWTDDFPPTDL

CryoR5 = molecular target: T6, CryoR5 (Subtercola boreus, UniProt A0A3E0VLV3); experiment: as above; assay type: binding; conditions: covalent Schiff base; detergent; pH 8.0
T6 construct: gene B7R54_12135
T6 sequence (A0A3E0VLV3 1-318): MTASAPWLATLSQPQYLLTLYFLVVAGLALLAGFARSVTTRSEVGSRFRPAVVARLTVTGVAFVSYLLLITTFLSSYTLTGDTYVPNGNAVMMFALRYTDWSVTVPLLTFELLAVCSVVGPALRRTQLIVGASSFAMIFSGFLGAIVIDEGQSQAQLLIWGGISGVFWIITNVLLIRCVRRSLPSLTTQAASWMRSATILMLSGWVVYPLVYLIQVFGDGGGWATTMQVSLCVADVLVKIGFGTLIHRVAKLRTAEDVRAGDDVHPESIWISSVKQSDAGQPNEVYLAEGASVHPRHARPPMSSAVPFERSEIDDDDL

CryoR1 [8] = molecular target: T4, CryoR1; experiment: cryo-EM structure (light-accumulated M2 state), […] A; assay type: binding; conditions: covalent deprotonated Schiff base (K241); photoproduct formed in situ from all-trans-retinal; pH 10.5; 530/532 nm illumination

“CryoRhodopsin 2 (CryoR2) from Subtercola sp. AK-R2A1-2 (natural protein)” showed a stoichiometry N [1] of 5 and a stoichiometry N [2] of 5.

With “CryoRhodopsin 1 (CryoR1) from Cryobacterium levicorallinum, wild type (natural protein)” the stoichiometry N [3] was 5, the stoichiometry N [4] was 5 and the stoichiometry N [5] was 5.

For `CC1=C(/C=C/C(C)=C/C=C/C(C)=C/C=O)C(C)(C)CCC1` [all-trans-retinal], the “UV-Vis absorption and flash photolysis of purified holoprotein” value (shortened to “UV-Vis absorption and flash photolysis”) (CryoR4) was “CryoR1-5 differ in their UV–visible (Vis) absorption spectra”, the “UV-Vis absorption and flash photolysis” value (CryoR3) was “CryoR1-5 differ in their UV–visible (Vis) absorption spectra” and the “UV-Vis absorption and flash photolysis” value (CryoR1_1–263) was “spectral properties of the truncated variant of CryoR1”. For the same compound, the “cryo-EM structure (ground state)” value (CryoR1 [6]) was “presence of a single state, which we assigned to the ground state”, the “UV-Vis absorption and flash photolysis” value (CryoR1 [7]) was “we studied the spectroscopic properties of the R57T mutant of CryoR1” and the “UV-Vis absorption and flash photolysis” value (CryoR5) was “CryoR1-5 differ in their UV–visible (Vis) absorption spectra”.

`CC1=C(/C=C/C(C)=C/C=C/C(C)=C\C=O)C(C)(C)CCC1` [13-cis retinal] was tested, and the “cryo-EM structure (light-accumulated M2 state), 2.3 A” value (CryoR1 [8]) was “strongly suggests the 13-cis conformation of the cofactor in the M2 state”.
